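Cells were grown in 96-well plates and exposed to each compound for 48 hours at five concentrations; endpoints were interpolated linearly between bracketing concentrations, or set to the highest concentration if not reached. At the GI50, growth is halved. TGI denotes the concentration required for complete inhibition of growth.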
Columns and labels:
Assay in all cases: NCI anticancer screen, dose series, 48 h
[1] = system: RPMI-8226 leukemia
[2] = system: EKVX NSCLC
[3] = system: UO-31 renal
[4] = system: UACC-62 melanoma
[5] = system: SK-MEL-28 melanoma
[6] = system: A549 NSCLC
[7] = system: U251 CNS
[8] = system: SK-MEL-2 melanoma
[9] = system: MDA-MB-435
[10] = system: MDA-MB-231 breast

Row | SMILES | TGI [1] [µM] | TGI [2] [µM] | TGI [3] [µM] | TGI [4] [µM] | TGI [5] [µM] | TGI [6] [µM] | TGI [7] [µM] | TGI [8] [µM] | TGI [9] [µM] | TGI [10] [µM] | GI50 [1] [µM] | GI50 [2] [µM] | GI50 [3] [µM] | GI50 [4] [µM] | GI50 [5] [µM] | GI50 [9] [µM] | GI50 [6] [µM] | GI50 [7] [µM] | GI50 [8] [µM] | GI50 [10] [µM]
1 | CCC(C)C(=O)c1c(O)c(C/C=C(\C)CCC=C(C)C)c(O)c2c(C(O)CC)cc(=O)oc12 (stereo not given) | 3.51 | 10.1 | 6.95 | 5.15 | 5.57 | 11.4 | 9.67 | 3.83 |  |  |  |  |  |  |  |  |  |  |  | 
2 | CC[n+]1c(/C=C/c2ccc(N(CCCl)CCCl)cc2)ccc2cc(NC(=O)/C=C/c3ccccc3)ccc21 | 0.696 | 4.76 | 52.2 | 2.28 | 2.03 | 6.09 | 0.619 | 1.27 | 1.07 | 1.09 |  |  |  |  |  |  |  |  |  | 
3 | COc1cc(C2c3cc4c(cc3[C@@H](Nc3cccc(C(C)=O)c3)C3COC(=O)[C@H]23)OCO4)cc(OC)c1O (stereo not given in full) | 2.21 | > 22.3 | 6.89 | 4.67 | 50.6 | 1.99 | 9.97 | 7.43 |  |  |  |  |  |  |  |  |  |  |  | 
4 | COc1ccc(CC(C)N)cc1 (stereo not given) | > 100 | > 100 | > 100 | > 100 | > 100 | > 100 | > 100 | > 100 |  |  |  |  |  |  |  |  |  |  |  | 
5 | CCO/N=[N+](\[O-])N(CC)CC |  | > 100 | > 100 | > 100 | > 100 | > 100 |  | > 100 |  |  |  |  |  |  |  |  |  |  |  | 
6 | CC1(C)N=C(N)N=C(N)N1c1cccc(OCCOc2ccc([N+](=O)[O-])cc2)c1 | > 100 | > 100 |  |  | > 100 | > 100 | > 100 | > 100 | > 100 | > 100 |  |  |  |  |  |  |  |  |  | 
7 | CC(C)C[P+](c1ccccc1)(c1ccccc1)c1ccccc1 | 0.033 | 30 | > 100 | > 100 | > 100 | > 100 | > 100 | 41.7 | 25 | > 100 |  |  |  |  |  |  |  |  |  | 
8 | Cc1nc2ccccc2c(=O)[nH]1 | > 100 | > 100 | > 100 | > 100 | > 100 | > 100 | > 100 | > 100 |  |  |  |  |  |  |  |  |  |  |  | 
9 | ClCc1c(Cl)c(Cl)c(Cl)c(CCl)c1Cl | 4.24 | 4.15 | 3.12 | 3.13 | 3.96 | 16.3 | 3.08 | 5.07 | 5.68 | 3.29 | 1.86 | 1.81 | 1.63 | 1.61 | 1.95 | 2.16 | 4.8 | 1.71 | 2.2 | 1.81
10 | CCOC(=O)/C=C(\C)c1ccc(OC)cc1 | > 100 | > 100 | > 100 |  | > 100 | > 100 | > 100 | > 100 |  |  |  |  |  |  |  |  |  |  |  | 
11 | COc1cc[n+](C)cc1 | > 100 | > 100 | > 100 | > 100 | > 100 | > 100 | > 100 | > 100 |  |  |  |  |  |  |  |  |  |  |  | 
12 | NCc1ccc(C(=O)O)cc1 |  | > 100 | > 100 | > 100 | > 100 | > 100 | > 100 |  | > 100 | > 100 |  |  |  |  |  |  |  |  |  | 
13 | C#CC[C@@H]1C[C@]2(C)[C@H]3CC=C4[C@H]5CC(C)(C)CC[C@]5(C(=O)NCCCCN)CC[C@@]4(C)[C@]3(C)CC[C@H]2C(C)(C)[C@H]1OC(C)=O |  | 3.3 | 2.71 | 3.34 | 3.17 | 3.27 | 3.21 | 3.45 | 3.1 | 3.1 |  | 1.69 | 1.41 | 1.86 | 1.74 | 1.69 | 1.66 | 1.69 | 1.78 | 1.61
14 | Brc1ccccc1-c1ncc(-c2ccccc2)o1 | 48.8 | > 100 | > 100 | > 100 | > 100 | > 100 | 44.2 | 89.9 | 60.4 | > 100 |  |  |  |  |  |  |  |  |  | 
15 | O=[N+]([O-])c1cn[n+]([O-])c2ccccc12 | 7.37 | 26.1 |  |  | 26.1 | 30.1 | 15 |  | 27.8 | 27.3 |  |  |  |  |  |  |  |  |  | 
16 | CN(C)c1ccc(N=Nc2ccccn2)cc1 | > 100 | > 100 | 79.8 | > 100 | > 100 | > 100 | 33 | > 100 | > 100 | > 100 |  |  |  |  |  |  |  |  |  | 
17 | CC(C)(Br)C1(O)CCCN1C(=O)c1ccccc1 (stereo not given) |  | > 100 | > 100 | > 100 | > 100 | > 100 | > 100 | > 100 |  |  |  |  |  |  |  |  |  |  |  | 
18 | NCc1ccccc1C1CSCSC1 |  |  | > 100 | > 100 | > 100 | > 100 | > 100 | > 100 |  |  |  |  |  |  |  |  |  |  |  | 
19 | COc1ccc(NC(=O)/C(CC2=Nc3ccc([N+](=O)[O-])cc3NC2O)=N\NC(=O)C[N+](C)(C)C)c(OC)c1 (stereo not given) |  | > 100 | > 100 | > 100 | > 100 | > 100 | > 100 | > 100 | > 100 | 42.1 |  |  |  |  |  |  |  |  |  | 
20 | Cn1c(-c2ccc(/C=N\N3CCN(/N=C/c4ccc(-c5c[n+]6ccccc6n5C)cc4)CC3)cc2)c[n+]2ccccc12 | > 100 | > 100 | > 100 | > 100 |  | > 100 | > 100 | > 100 | > 100 | 75 |  |  |  |  |  |  |  |  |  | 
21 | C=C1C(=O)OC2C1CC(O)/C(C)=C\CCC1(C)OC21 (stereo not given) | 65.4 | > 100 | 66.6 | 61.1 | 91.1 | > 100 | 54.8 | 44.5 | 89.6 | 35.4 |  |  |  |  |  |  |  |  |  | 
